The record followed here is patent US7759377B2, “Acylaminothiazole derivatives and use thereof as beta-amyloid inhibitors” (Sanofi-Aventis, priority 2004, dated 2010).

This experiment concerns the target T1, gamma-secretase (Homo sapiens, UniProt P49768, M146L).
T1 construct: expressed in transfected cells; host or cells: CHO-K1, clone 30-12
Briefly: β-amyloid cellular test: inhibition of production of β-A4 peptide, ELISA of cellular supernatants. Format: cell-based. The conditions noted are these: CHO-K1 line coexpressing CT100 of APP and PS1 M146L clone 30-12; 24-25 h incubation; secreted amyloid peptide by ELISA. The source says: For the β-amyloid cellular test, the CHO—K1 line coexpressing the CT100 of APP and PS1 M146L clone 30-12 is used. The line targets the inhibition of gamma-secretase. Presenilin is linked to gamma-secretase activity (Wolfe M S, Haass C., The Role of presenilins in gamma-secretase activity, J. Biol. Chem. 2001, 276(8): 5413-6) and its coexpression with the amyloid protein or its N-terminal fragment causes an increase in secretion of the peptide A1-42 (β-A4), thereby generating a pharmacological tool which allows inhibition by the compounds of formula (I) of the production of the β-A4 peptide to be evaluated. 96-well culture plates are inoculated with 1×10^5 cells per well in 150 μl of incubation medium. The presence of a minimum percentage (1.3% final) of serum allows cellular adhesion to the plastic after 2-3 hours of incubation at 37° C., in the presence of 5% CO2. The products (15 μl) are tested at 10 μM DMSO 1% final and are incubated for 24-25 h at 37° C. in the presence of 5% CO2 and 100% humidity. After this 24-25 h incubation, the cellular supernatants (100 μl) are transferred to ELISA plates, treated with the capture antibody 6E10 (6E10, epitope: aa1-17, INTERCHIM/SENETEK 320/10), to determine the amount of amyloid peptides secreted by the cells in the presence of compounds according to the invention. A series of synthetic control peptide, “peptide 1-40”, at 5 and 10 ng/ml is treated in parallel. The ELISA plates are incubated overnight at 4° C.
The quantity of bound peptide is detected indirectly in the presence of a competitor which corresponds to the truncated peptide, peptide 1-28 coupled to biotin, which is then detected with streptavidin coupled to alkaline phosphatase. The substrate, p-nitrophenyl phosphate (pNPP FAST p-Nitrophenyl Phosphate, Sigma N2770), gives a yellow, soluble reaction product which can be read at 405 nm. The reaction is stopped with 0.1 M EDTA solution. For this purpose, following binding of the amyloid peptide in the ELISA plate, 50 μl of biotinylated peptide 1-28 are added to 100 μl of cellular supernatant and incubated for 30 minutes at ambient temperature. The ELISA plates are then washed 3 times. After drying by inversion on absorbent paper, 100 μl of streptavidin-alkaline phosphatase (Interchim/Jackson ImmunoResearch Laboratories 016-050-084) are added per well and incubated for 1 hour at ambient temperature. The plates are washed again and then the alkaline phosphatase substrate (pNPP 1 mg/ml) is added in an amount of 100 μl per well. After 30 minutes of incubation at ambient temperature the reaction is stopped by adding 100 μl per well of 0.1 M EDTA and reading is carried out at 405 nm.
Take `CCC[C@H](NC(=O)[C@@H](O)C(C)(C)C)C(=O)Nc1nc(-c2nc(-c3ccccc3)no2)c(C(C)C)s1` [Compound 7]: the EC50 (in general, the midpoint of the concentration-response curve) was 52 nM.
The value for `CCC[C@H](NC(=O)[C@@H](O)C(C)(C)C)C(=O)Nc1nc(-c2nc3ccccc3o2)c(C(C)C)s1` [Compound 34, 2-{2-(S)-[2-(S)-hydroxy(3,3-dimethyl)butyrylamino]pentanoyl}amino-5-(1-methylethyl)-4-(1,3-benzoxazol-2-yl)thiazole] was 42 nM; that for `CCCC(NC(=O)C(O)c1cc(F)cc(F)c1)C(=O)Nc1nc(C)c(-c2nc(C)no2)s1` (stereo not shown) [Compound 40] was 85 nM; that for `CCC[C@H](NC(=O)[C@@H](O)C(C)(C)C)C(=O)Nc1ncc(-c2nnnn2Cc2ccccc2)s1` [Compound 51, 2-{2-(S)-[2-(S)-hydroxy(3,3-dimethyl)butyrylamino]pentanoyl}amino-5-(1-benzyl-1H-tetrazol-5-yl)thiazole] was 94 nM.
